What is called IC50 is the midpoint of a concentration-inhibition curve.

In this assay the target is T1, leucocyte 5-lipoxygenase (Rattus norvegicus, UniProt P12527).
T1 construct: rat basophilic leukemia cells (RBL-1, ATCC No. CRL 1378) were used as the source of 5-lipoxygenase; host or cells: RBL-1 rat basophilic leukemia cells
T1 sequence (P12527 1-673): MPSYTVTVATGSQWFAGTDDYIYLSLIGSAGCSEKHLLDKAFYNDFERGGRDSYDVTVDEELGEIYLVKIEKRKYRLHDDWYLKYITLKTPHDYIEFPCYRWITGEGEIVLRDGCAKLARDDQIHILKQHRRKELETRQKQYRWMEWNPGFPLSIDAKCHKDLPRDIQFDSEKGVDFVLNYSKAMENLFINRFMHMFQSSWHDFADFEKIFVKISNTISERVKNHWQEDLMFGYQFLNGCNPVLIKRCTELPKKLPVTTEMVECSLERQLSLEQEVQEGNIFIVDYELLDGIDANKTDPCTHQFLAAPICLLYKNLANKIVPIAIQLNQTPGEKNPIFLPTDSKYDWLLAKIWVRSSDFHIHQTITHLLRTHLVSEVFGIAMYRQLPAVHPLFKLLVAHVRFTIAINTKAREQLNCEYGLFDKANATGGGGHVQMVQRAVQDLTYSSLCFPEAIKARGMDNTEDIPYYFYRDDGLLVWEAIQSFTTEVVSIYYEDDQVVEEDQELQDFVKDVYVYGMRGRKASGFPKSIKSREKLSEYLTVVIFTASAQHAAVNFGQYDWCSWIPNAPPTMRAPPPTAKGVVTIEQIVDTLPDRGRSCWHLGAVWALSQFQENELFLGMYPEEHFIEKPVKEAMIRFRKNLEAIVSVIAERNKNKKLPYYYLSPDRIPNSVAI
The experiment in a line: Inhibitory activity against leucocyte 5-lipoxygenase (5-HETE formation by HPLC, RBL-1 cells as enzyme source). The note with it: rat basophilic leukemia cells (RBL-1) as source of 5-lipoxygenase; arachidonic acid substrate; 37°C; pH 7.4. Format: biochemical. The method, then: a) Method for determining the inhibitory activity against leucocyte 5-lipoxygenase:
Lipoxygenase activity was determined by a modification of the method of B.A. Jakschik et al. [Biochem. Biophys. Res. Commun., 95, 103 (1980)]. That is, rat basophilic leukemia cells (RBL-1, ATCC No. CRL 1378) were used as the source of 5-lipoxygenase. The cells were contacted with a test compound in 60 µl of 0.17 M Trishydrochloride buffer (pH 7.4) containing […] calcium chloride, 3.3 mM adenosine triphosphate and 1 mM glutathione at 37°C for 5 minutes. Then,-50 µl of 60 µM arachidonic acid was added to the reaction mixture and the mixture was allowed to stand at 37° C for 5 minutes. To the mixture were added 200 µl of methanol and 13-hydroxylinoleic acid as the internal standard, followed by thorough shaking. The mixture was allowed to stand at -20 C for 30 minutes and then centrifuged at 12000 r.p.m. for 10 minutes. After the supernatant was evaporated to dryness in a stream of nitrogen, 200 µl of 75% aqueous methanol was added to the residue. The resulting solution (100 µl) was subjected to high performance liquid chromatography to quantitatively determine 5-HETE (5-hydroxyeicosatetraenoic acid). The absorption at 234 nm was measured with a UV absorption monitor and the amount of 5-HETE produced was determined from the peak area corrected by the peak of the internal standard. The test was carried out using the test compound at various concentrations and the concentration that inhibits 50% enzyme activity was determined as the inhibitory activity.

On to `CCCCCCCCCCCC(=O)N(O)CCCCCN1C(=O)CCCC1=O` [Compound 5], for which the IC50 was found to be 36 nM.

For `CCCCCCCCCCCN(O)C(=O)CCC(=O)OC` [Compound 7], the half-maximal inhibitory concentration (IC50) came out at 38 nM.

`CCCCCCCCCCCC(=O)N(O)CCCN1C(=O)CCC1=O` [Compound 3]: half-maximal inhibition (IC50) required 20 nM.

`CCCCCCCCCCCN(O)C(=O)c1ccccc1` [Compound 12] returned a 50% inhibitory concentration (IC50) of 300 nM.

Turning to `CCCCCCCCCCCN(O)C(=O)CCCCCN1C(=O)CCC1=O` [Compound 2], inhibition was half-maximal at 20 nM (IC50).

`CCCCCCCCCCCN(O)C(C)=O` [Compound 10]: half-maximal inhibition (IC50) was put at 34 nM.

Consider `CCCCCCCCCCCC(=O)N(O)CCCCCCCN1C(=O)CCC1=O` [Compound 1], for which half-maximal inhibition (IC50) required 20 nM.

Regarding `CCCCCCCCCCCC(=O)N(O)CCCCCN1CCCC1=O` [Compound 6], the IC50 is 25 nM.

`CCCCCCCCCCCC(=O)N(O)CCCCCN1C(=O)c2ccccc2C1=O` [Compound 4] showed a half-maximal inhibitory concentration (IC50) of 40 nM.

In turn, `CCCCCCCCCCCN(O)C(=O)CCC` [Compound 11] yielded an IC50 of 44 nM.

The record behind these values is patent EP0365210A1, “Hydroxamic acid derivatives” (KYOWA HAKKO KOGYO CO., LTD., priority 1988, dated 1990).
